ChEMBL document CHEMBL3421539, “A novel cell-permeable, selective, and noncompetitive inhibitor of KAT3 histone acetyltransferases from a combined molecular pruning/classical isosterism approach” (J Med Chem, 2015)
Activity calls are given as the source filed them. No cut-off for these calls is given here.

Experiments:
[1] = Stability of the compound in organic solvent assessed as hydrolysis after 10 mins to 24 hrs by HPLC analysis; format: physicochemical
[2] = Stability of the compound in aqueous medium assessed as hydrolysis after 10 mins to 24 hrs by HPLC analysis; format: physicochemical; details: buffer
[3] = target: T1, Histone acetyltransferase p300 (Homo sapiens, UniProt Q09472); test: Inhibition of P300 (unknown origin) using histone H3/[acetyl-3H]-acetyl coenzyme A as substrate
[4] = target: T1, Histone acetyltransferase p300; test: Inhibition of P300 (unknown origin) using histone H3/[acetyl-3H]-acetyl coenzyme A as substrate at 100 uM
[5] = target: T2, Histone acetyltransferase KAT2B (Homo sapiens, UniProt Q92831); test: Inhibition of PCAF (unknown origin) using histone H3/[acetyl-3H]-acetyl coenzyme A as substrate at 100 uM
Target sequence in this assay (Q92831 whole entry, looked up): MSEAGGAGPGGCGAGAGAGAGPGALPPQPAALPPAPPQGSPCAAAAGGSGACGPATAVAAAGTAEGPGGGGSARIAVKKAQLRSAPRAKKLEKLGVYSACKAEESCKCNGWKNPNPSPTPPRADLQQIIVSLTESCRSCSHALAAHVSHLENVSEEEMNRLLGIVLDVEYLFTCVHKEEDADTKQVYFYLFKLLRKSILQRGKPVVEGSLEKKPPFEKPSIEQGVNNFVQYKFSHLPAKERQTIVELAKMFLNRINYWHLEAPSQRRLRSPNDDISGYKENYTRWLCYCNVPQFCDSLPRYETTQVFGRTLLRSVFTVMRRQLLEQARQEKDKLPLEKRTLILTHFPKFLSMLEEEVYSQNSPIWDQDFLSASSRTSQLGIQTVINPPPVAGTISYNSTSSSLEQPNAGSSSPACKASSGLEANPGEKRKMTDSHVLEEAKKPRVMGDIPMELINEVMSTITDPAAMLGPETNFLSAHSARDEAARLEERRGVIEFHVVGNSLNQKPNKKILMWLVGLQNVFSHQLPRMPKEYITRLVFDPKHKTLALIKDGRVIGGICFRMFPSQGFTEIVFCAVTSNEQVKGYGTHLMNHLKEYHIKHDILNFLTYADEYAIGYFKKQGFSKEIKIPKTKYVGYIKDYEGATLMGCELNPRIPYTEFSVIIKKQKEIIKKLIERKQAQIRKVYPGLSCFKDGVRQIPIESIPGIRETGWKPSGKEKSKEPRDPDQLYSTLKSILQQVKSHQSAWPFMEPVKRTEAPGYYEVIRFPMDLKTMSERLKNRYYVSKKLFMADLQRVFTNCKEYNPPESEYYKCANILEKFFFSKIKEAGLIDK

[6] = Stability of the compound in aqueous medium assessed as hydrolysis after 30 mins by HPLC analysis; format: physicochemical; details: buffer, 0.5 h
[7] = target: T1, Histone acetyltransferase p300; test: Binding affinity to human recombinant P300 catalytic domain by SPR analysis
[8] = Stability of the compound in PBS at 25 degC after 2 mins to 24 hrs by HPLC analysis; format: physicochemical; details: buffer
[9] = target: Histone acetyltransferase KAT2A (Homo sapiens) (UniProt Q92830); test: Inhibition of recombinant GCN5 (unknown origin)
CREB-binding protein = CREB-binding protein (Homo sapiens, UniProt Q92793); test: Inhibition of recombinant CBP (unknown origin)
[10] = Cytotoxicity against human U937 cells assessed as cell viability at 10 to 100 uM after 24 hrs by MTT assay; format: cell-based; details: u-937, 24 h
[11] = target: T1, Histone acetyltransferase p300; test: Reversible inhibition of P300 (unknown origin)
[12] = target: T2, Histone acetyltransferase KAT2B; test: Inhibition of recombinant PCAF (unknown origin)
Target sequence in this assay (Q92831 whole entry, looked up): as above

[13] = Induction of beta-mercaptoethanol adduct formation in PBS after 30 mins to 24 hrs by HPLC analysis
[14] = Cell cycle arrest in human U937 cells assessed as increase in hypodiploid nuclei level at 100 uM after 72 hrs by Nicoletti method; format: functional, cell-based; details: U-937
[15] = Apparent permeability of the compound at RT after 24 hrs by PAMPA; format: physicochemical
[16] = Cell cycle arrest in human U937 cells assessed as accumulation at G0/G1 phase at 100 uM after 72 hrs by propidium iodide staining-based FACS analysis; format: functional; details: U-937
[17] = target: T1, Histone acetyltransferase p300; test: Inhibition of P300 in human U937 cells assessed as reduction in H4K5 histone acetylation at 100 uM by immunoblotting analysis; format: cell-based; details: U-937, TDE = time-dependent effect
[18] = target: T1, Histone acetyltransferase p300; test: Noncompetitive inhibition of P300 (unknown origin) using acetyl CoA as substrate after 15 mins by double reciprocal plot analysis
[19] = target: T1, Histone acetyltransferase p300; test: Inhibition of recombinant P300 (unknown origin)
[20] = target: T1, Histone acetyltransferase p300; test: Inhibition of P300 in human U937 cells assessed as reduction in H3K9 histone acetylation at 100 uM by immunoblotting analysis; format: cell-based; details: U-937, TDE = time-dependent effect
[21] = target: T1, Histone acetyltransferase p300; test: Noncompetitive inhibition of P300 (unknown origin) using biotinylated H3 as substrate after 15 mins by double reciprocal plot analysis
[22] = target: T1, Histone acetyltransferase p300; test: Inhibition of P300 in […] at 30 uM up to 40 mins by Histac FRET analysis; format: cell-based; details: COS-7
[23] = target: T2, Histone acetyltransferase KAT2B; test: Inhibition of PCAF (unknown origin) using histone H3/[acetyl-3H]-acetyl coenzyme A as substrate at 10 uM
Target sequence in this assay (Q92831 whole entry, looked up): as above

[24] = target: T2, Histone acetyltransferase KAT2B; test: Inhibition of PCAF (unknown origin) using histone H3/[acetyl-3H]-acetyl coenzyme A as substrate
Target sequence in this assay (Q92831 whole entry): as the sequence (Q92831 whole entry, looked up) above

[25] = target: T1, Histone acetyltransferase p300; details: 10 uM
Description: Inhibition of P300 (unknown origin) using histone H3/[acetyl-3H]-acetyl coenzyme A as substrate at 10 uM

T1 sequence (Q09472 whole entry): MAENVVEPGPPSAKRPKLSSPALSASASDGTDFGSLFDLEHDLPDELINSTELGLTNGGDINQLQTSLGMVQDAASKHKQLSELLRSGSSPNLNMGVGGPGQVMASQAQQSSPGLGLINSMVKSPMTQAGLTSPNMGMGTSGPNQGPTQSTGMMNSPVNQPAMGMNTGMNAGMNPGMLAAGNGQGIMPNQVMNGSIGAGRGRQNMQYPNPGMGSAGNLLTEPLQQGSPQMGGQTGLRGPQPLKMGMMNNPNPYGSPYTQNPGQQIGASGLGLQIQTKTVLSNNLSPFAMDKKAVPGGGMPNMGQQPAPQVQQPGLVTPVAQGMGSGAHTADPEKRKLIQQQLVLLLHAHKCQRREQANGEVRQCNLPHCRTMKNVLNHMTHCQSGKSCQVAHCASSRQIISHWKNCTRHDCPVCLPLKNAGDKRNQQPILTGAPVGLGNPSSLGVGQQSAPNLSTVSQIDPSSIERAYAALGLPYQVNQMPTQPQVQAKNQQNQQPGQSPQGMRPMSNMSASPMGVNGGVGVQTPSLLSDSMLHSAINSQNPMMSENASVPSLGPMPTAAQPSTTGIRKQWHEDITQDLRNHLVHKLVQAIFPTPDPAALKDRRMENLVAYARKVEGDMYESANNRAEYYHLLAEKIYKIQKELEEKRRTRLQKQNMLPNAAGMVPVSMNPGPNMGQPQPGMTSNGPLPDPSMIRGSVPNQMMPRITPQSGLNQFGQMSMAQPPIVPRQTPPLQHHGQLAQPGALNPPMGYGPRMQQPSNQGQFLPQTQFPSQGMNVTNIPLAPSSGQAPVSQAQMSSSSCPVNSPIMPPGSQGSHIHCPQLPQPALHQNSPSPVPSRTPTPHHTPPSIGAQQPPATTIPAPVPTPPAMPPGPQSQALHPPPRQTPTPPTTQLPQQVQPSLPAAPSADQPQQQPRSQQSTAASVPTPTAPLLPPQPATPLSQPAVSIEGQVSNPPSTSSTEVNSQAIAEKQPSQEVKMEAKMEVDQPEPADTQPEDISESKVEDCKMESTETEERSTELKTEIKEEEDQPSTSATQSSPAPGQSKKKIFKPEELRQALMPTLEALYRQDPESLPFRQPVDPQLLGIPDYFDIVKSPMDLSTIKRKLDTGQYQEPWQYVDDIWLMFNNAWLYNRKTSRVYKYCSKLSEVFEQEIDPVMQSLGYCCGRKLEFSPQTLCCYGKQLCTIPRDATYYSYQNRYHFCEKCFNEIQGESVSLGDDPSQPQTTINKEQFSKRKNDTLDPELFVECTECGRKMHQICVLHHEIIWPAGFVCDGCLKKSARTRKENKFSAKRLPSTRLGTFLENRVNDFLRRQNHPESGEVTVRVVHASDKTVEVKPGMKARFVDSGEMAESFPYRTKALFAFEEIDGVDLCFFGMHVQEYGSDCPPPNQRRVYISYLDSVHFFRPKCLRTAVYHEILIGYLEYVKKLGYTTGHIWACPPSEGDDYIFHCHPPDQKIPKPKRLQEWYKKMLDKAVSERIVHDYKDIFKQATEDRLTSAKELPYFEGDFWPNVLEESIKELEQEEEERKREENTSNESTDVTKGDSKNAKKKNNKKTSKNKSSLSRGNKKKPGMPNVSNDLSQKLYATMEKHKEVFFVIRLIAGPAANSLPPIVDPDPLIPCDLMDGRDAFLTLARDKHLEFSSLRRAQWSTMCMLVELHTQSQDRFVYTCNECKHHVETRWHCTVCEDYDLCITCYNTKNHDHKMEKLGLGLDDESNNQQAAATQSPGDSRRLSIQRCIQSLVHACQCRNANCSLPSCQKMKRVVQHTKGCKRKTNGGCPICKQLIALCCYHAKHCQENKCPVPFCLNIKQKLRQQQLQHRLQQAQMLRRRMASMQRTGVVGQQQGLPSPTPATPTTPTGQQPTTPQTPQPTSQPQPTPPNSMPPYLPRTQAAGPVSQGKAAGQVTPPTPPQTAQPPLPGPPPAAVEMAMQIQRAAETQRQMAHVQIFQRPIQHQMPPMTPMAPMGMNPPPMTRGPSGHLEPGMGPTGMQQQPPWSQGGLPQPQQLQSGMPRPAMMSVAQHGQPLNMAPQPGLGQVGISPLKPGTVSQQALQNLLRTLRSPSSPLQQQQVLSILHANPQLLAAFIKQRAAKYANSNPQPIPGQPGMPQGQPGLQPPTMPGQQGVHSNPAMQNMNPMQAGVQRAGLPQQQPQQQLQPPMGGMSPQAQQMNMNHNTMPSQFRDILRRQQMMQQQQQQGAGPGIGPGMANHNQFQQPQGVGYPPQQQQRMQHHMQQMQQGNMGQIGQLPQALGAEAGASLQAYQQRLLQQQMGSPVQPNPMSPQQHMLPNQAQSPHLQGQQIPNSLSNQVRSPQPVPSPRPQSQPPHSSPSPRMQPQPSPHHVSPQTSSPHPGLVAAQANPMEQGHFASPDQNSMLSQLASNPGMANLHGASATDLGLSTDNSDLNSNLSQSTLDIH
Histone acetyltransferase KAT2A (Homo sapiens), sequence (Q92830 2-837 limits assumed): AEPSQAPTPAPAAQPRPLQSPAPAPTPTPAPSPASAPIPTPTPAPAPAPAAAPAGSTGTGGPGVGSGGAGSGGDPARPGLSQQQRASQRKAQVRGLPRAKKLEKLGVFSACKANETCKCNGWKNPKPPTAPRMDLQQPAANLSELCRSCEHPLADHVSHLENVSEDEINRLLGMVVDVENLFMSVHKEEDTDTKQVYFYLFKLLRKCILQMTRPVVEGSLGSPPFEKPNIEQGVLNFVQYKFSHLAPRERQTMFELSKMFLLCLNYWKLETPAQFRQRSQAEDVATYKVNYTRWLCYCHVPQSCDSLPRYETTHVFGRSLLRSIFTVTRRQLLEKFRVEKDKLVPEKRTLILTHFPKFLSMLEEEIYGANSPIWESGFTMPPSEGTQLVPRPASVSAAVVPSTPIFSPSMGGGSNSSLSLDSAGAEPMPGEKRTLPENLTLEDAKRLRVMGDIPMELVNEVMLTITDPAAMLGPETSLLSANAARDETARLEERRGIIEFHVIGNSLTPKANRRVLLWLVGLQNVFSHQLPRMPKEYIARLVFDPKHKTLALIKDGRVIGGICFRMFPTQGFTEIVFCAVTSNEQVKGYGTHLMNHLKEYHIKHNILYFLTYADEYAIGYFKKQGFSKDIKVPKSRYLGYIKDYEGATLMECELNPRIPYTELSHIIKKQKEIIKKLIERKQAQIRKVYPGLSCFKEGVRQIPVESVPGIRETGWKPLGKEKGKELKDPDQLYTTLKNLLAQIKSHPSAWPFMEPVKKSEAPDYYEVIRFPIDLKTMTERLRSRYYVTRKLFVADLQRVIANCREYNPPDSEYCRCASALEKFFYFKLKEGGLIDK

SMILES | Stability [1] | Stability [2] | inhibition [4] [%] | inhibition [5] [%] | further results
CC(C)CN1C(=O)C(=Cc2ccc(O)c(O)c2)C(=O)N(CC(C)C)C1=O | Stable | Unstable | 91.8 | – | IC50 [3]: 5.4 µM
C=CCN1C(=O)C(=Cc2ccc(O)c(OC)c2)C(=O)N(CC=C)C1=O | Stable | Unstable | 67.3 | 5.1 | IC50 [3]: 26.4 µM
C=CCN1C(=O)C(C(=O)c2ccccc2)C(=O)N(CC=C)C1=O | – | – | 28.1 | – | –
C=CCN1C(=O)C(=Cc2ccc(OC)cc2)C(=O)N(CC=C)C1=O | Stable | Unstable | 59.9 | 11.7 | –
O=C1C(=Cc2ccccc2)C(=O)N(Cc2ccccc2)C(=O)N1Cc1ccccc1 | Stable | Unstable | – | – | –
COc1cc(C=C2C(=O)N(Cc3ccccc3)C(=O)N(Cc3ccccc3)C2=O)ccc1O | Stable | Unstable | 97.1 | – | Stability [6]: Unstable; IC50 [3]: 1.5 µM
O=C1C(Cc2ccccc2)C(=O)N(Cc2ccccc2)C(=O)N1Cc1ccccc1 | – | – | 83.9 | – | Kd [7]: 0.11 µM; Stability [8]: Stable
O=C(c1ccc(O)c(O)c1)C1C(=O)N(Cc2ccccc2)C(=O)N(Cc2ccccc2)C1=O | – | – | 48.2 | – | –
C=CCN1C(=O)C(Cc2ccc(O)c(O)c2)C(=O)N(CC=C)C1=O | – | – | 1.1 | – | –
O=C(c1ccc(O)cc1)C1C(=O)N(Cc2ccccc2)C(=O)N(Cc2ccccc2)C1=O | – | – | 54.4 | – | –
C=CCN1C(=O)C(=Cc2ccc(O)c(O)c2)C(=O)N(CC=C)C1=O | Stable | Unstable | 61.6 | 3.3 | –
Cc1cc(O)cc(C)c1C=C1C(=O)N(Cc2ccccc2)C(=O)N(Cc2ccccc2)C1=O | – | – | – | – | inhibition [9]: inactive; IC50 (CREB-binding protein): 1.1 µM; Activity [10]: Non-toxic; inhibition [11]: Active; inhibition [12]: inactive; Stability [8]: Stable; Activity [13]: inactive; Activity [14]: Active; Papp at 24 h [15]: 1.9 ×10⁻⁶ cm/s; Activity [16]: Active; inhibition [17]: tde; Ki [18]: 2 µM; alphaKi [18]: 5.7 µM; IC50 [19]: 2.9 µM; inhibition [20]: tde; Ki [21]: 9.4 µM; alphaKi [21]: 6.8 µM
O=C(c1ccccc1)C1C(=O)N(Cc2ccccc2)C(=O)N(Cc2ccccc2)C1=O | – | – | 84.8 | – | Kd [7]: 2.4 µM; Stability [8]: Stable
O=C1C(=Cc2ccc(O)c(O)c2)C(=O)N(Cc2ccccc2)C(=O)N1Cc1ccccc1 | Stable | Unstable | 96.2 | -2.3 | Stability [6]: Unstable; IC50 [3]: 1.6 µM
COc1ccc(C=C2C(=O)N(CC(C)C)C(=O)N(CC(C)C)C2=O)cc1OC | Stable | Unstable | 45.8 | 9.2 | –
CC(C)CN1C(=O)C(Cc2ccc(O)c(O)c2)C(=O)N(CC(C)C)C1=O | – | – | 24.3 | – | –
O=C1C(Cc2ccc(O)cc2)C(=O)N(Cc2ccccc2)C(=O)N1Cc1ccccc1 | – | – | 60.3 | – | –
COc1ccc(C=C2C(=O)N(CC(C)C)C(=O)N(CC(C)C)C2=O)cc1O | Stable | Unstable | 84.7 | 10.6 | IC50 [3]: 31.4 µM
CC(C)NCC(O)COc1cccc2ccccc12 (stereo not given) [PROPRANOLOL] | – | – | – | – | Papp at 24 h [15]: 4.1 ×10⁻⁶ cm/s
CC(C)CN1C(=O)C(C(=O)c2ccccc2)C(=O)N(CC(C)C)C1=O | – | – | 34.1 | – | –
O=C1C(=Cc2ccc(O)cc2)C(=O)N(Cc2ccccc2)C(=O)N1Cc1ccccc1 | Stable | Unstable | 99.2 | -0.6 | Stability [6]: Unstable; IC50 [3]: 2.1 µM; inhibition [22]: Active
COc1cc(C=C2C(=O)N(CC(C)C)C(=O)N(CC(C)C)C2=O)ccc1O | Stable | Unstable | 96.4 | 9.3 | IC50 [3]: 4.2 µM

SMILES | Stability [1] | Stability [2] | inhibition [4] [%] | inhibition [5] [%] | further results
C=CCN1C(=O)C(=Cc2ccc(O)cc2)C(=O)N(CC=C)C1=O | Stable | Unstable | 64.7 | 3.1 | –
C=CCN1C(=O)C(C(=O)c2ccc(O)cc2)C(=O)N(CC=C)C1=O | – | – | 19.1 | -2.7 | –
O=C1C(Cc2ccc(O)c(O)c2)C(=O)N(Cc2ccccc2)C(=O)N1Cc1ccccc1 | – | – | 59.9 | – | –
C=CCN1C(=O)C(=Cc2ccc(OC)c(O)c2)C(=O)N(CC=C)C1=O | Stable | Unstable | 49.5 | 3 | –
CC(C)CN1C(=O)C(=Cc2ccccc2)C(=O)N(CC(C)C)C1=O | Stable | Unstable | – | – | –
CCCCCCCCCCCCCCCc1cccc(O)c1C(=O)O [ANACARDIC ACID] | – | – | – | 3.6 | inhibition [23]: < 10%; IC50 [24]: 33.9 µM
C=CCN1C(=O)C(C(=O)c2ccc(O)c(O)c2)C(=O)N(CC=C)C1=O | – | – | 4.9 | 3.6 | –
COc1ccc(C=C2C(=O)N(CC(C)C)C(=O)N(CC(C)C)C2=O)cc1 | Stable | Unstable | 53.8 | 3.6 | –
C=CCN1C(=O)C(Cc2ccc(O)cc2)C(=O)N(CC=C)C1=O | – | – | 23.7 | -7.5 | –
CC(C)CN1C(=O)C(Cc2ccc(O)cc2)C(=O)N(CC(C)C)C1=O | – | – | 64.6 | 5 | –
COc1ccc(C=C2C(=O)N(Cc3ccccc3)C(=O)N(Cc3ccccc3)C2=O)cc1 | Stable | Unstable | 93.6 | -8.2 | IC50 [3]: 8 µM
COc1ccc(C=C2C(=O)N(Cc3ccccc3)C(=O)N(Cc3ccccc3)C2=O)cc1O | Stable | Unstable | 97.3 | – | Stability [6]: Unstable; IC50 [3]: 5.9 µM
C=CCN1C(=O)C(Cc2ccccc2)C(=O)N(CC=C)C1=O | – | – | 28.9 | – | –
CC(C)CN1C(=O)C(C(=O)c2ccc(O)c(O)c2)C(=O)N(CC(C)C)C1=O | – | – | 8.4 | 3.4 | –
C=CCN1C(=O)C(=Cc2ccc(OC)c(OC)c2)C(=O)N(CC=C)C1=O | Stable | Unstable | 31.1 | 6.6 | –
C=CCN1C(=O)C(=Cc2ccccc2)C(=O)N(CC=C)C1=O | Stable | Unstable | – | – | –
CC(C)CN1C(=O)C(Cc2ccccc2)C(=O)N(CC(C)C)C1=O | – | – | 23.1 | – | –
CC(C)CN1C(=O)C(C(=O)c2ccc(O)cc2)C(=O)N(CC(C)C)C1=O | – | – | 39.7 | 19.3 | –
CC(C)CN1C(=O)C(=Cc2ccc(O)cc2)C(=O)N(CC(C)C)C1=O | Stable | Unstable | 94 | – | IC50 [3]: 8.5 µM
CC1=NN(c2ccc(C(=O)O)cc2)C(=O)/C1=C\Cc1ccc(Cc2cc(C)c(C)cc2[N+](=O)[O-])o1 | – | – | – | – | inhibition [25]: 86%; IC50 [3]: 1.6 µM
COc1ccc(C=C2C(=O)N(Cc3ccccc3)C(=O)N(Cc3ccccc3)C2=O)cc1OC | Stable | Unstable | 88.2 | – | IC50 [3]: 11.4 µM
